A flash point compilation (Sun et al. 2020)

Row | Structure (SMILES) | flash point [°C]
1 | CCCCCCOC(=O)c1ccccc1C(=O)OCCCCCC [dihexyl benzene-1,2-dicarboxylate] | 177.00
2 | C1=CC2C3C=CC(C3)C2C1 (configuration not stated) [tricyclo[5.2.1.02,6]deca-3,8-diene] | 32.00
3 | c1ccc2sc(SSc3nc4ccccc4s3)nc2c1 [2-(1,3-benzothiazol-2-yldisulfanyl)-1,3-benzothiazole] | 270.00
4 | CCCCC(CC)COP(OCC(CC)CCCC)OCC(CC)CCCC (configuration not stated) [tris(2-ethylhexyl) phosphite] | 171.00
5 | CCCCOC(C)=O [butyl acetate] | 22.00
6 | O=[N+]([O-])c1ccc(O)cc1 [4-nitrophenol] | 192.00
7 | CCCOP(=S)(OCCC)OP(=S)(OCCC)OCCC | 149.00
8 | C1COCOC1 [1,3-dioxane] | 2.00
9 | C=O [formaldehyde] | 60.00
10 | NCCN1CCNCC1 [2-piperazin-1-ylethanamine] | 93.00
11 | C1=Cc2ccccc2C1 [1H-indene] | 78.00
12 | CCCCCCCCC/C=C/CC1CC(=O)OC1=O (configuration not stated) [3-[(E)-dodec-2-enyl]oxolane-2,5-dione] | 178.00
13 | Cc1cccc(C)c1O [2,6-dimethylphenol] | 74.00
14 | C/C=C/C=O [(E)-but-2-enal] | 13.00
15 | CCC(C)Nc1c([N+](=O)[O-])cc(C(C)(C)C)cc1[N+](=O)[O-] (configuration not stated) [N-butan-2-yl-4-tert-butyl-2,6-dinitroaniline] | 36.00
16 | CS(C)=O [methylsulfinylmethane] | 95.00
17 | CC(C)CCCCCOC(=O)c1ccccc1C(=O)OCCCCCC(C)C [bis(6-methylheptyl) benzene-1,2-dicarboxylate] | 232.00
18 | CCCSC(=O)N(CCC)CCC [S-propyl N,N-dipropylcarbamothioate] | 122.00
19 | OCc1ccccc1 [phenylmethanol] | 101.00
20 | CC1COC(C)CO1 (configuration not stated) [2,5-dimethyl-1,4-dioxane] | 24.00
21 | COCCOCCO [2-(2-methoxyethoxy)ethanol] | 93.00
22 | CCCCCCCCCCCCO [dodecan-1-ol] | 127.00
23 | C=C1C(CCl)(CCl)C2(Cl)C(Cl)C(Cl)C1(Cl)C2(Cl)Cl (configuration not stated) | 29.00
24 | OC=CCCO [but-1-ene-1,4-diol] | 128.00
25 | C1=CCCC=C1 [cyclohexa-1,3-diene] | 26.00

Row | Structure (SMILES) | flash point [°C]
26 | CCOC1CCC=CO1 (configuration not stated) [2-ethoxy-3,4-dihydro-2H-pyran] | 37.00
27 | CCCCOC(=O)c1ccccc1 [butyl benzoate] | 107.00
28 | CC(=O)OO [ethaneperoxoic acid] | 41.00
29 | C=CC(=O)OCC1CO1 (configuration not stated) [oxiran-2-ylmethyl prop-2-enoate] | 61.00
30 | NCCCNCCCN [N'-(3-aminopropyl)propane-1,3-diamine] | 79.00
31 | N#CCc1ccccc1 [2-phenylacetonitrile] | 102.00
32 | C=C(C)C(=O)O [2-methylprop-2-enoic acid] | 77.00
33 | S=C([S-])NCCNC(=S)[S-].S=C([S-])NCCNC(=S)[S-].[Mn+2].[Zn+2] | 138.00
34 | CC(C)C#N [2-methylpropanenitrile] | 8.00
35 | CCCCOC(=O)c1ccccc1C(=O)OCc1ccccc1 [2-O-benzyl 1-O-butyl benzene-1,2-dicarboxylate] | 199.00
36 | CCN(CC)CCCN [N',N'-diethylpropane-1,3-diamine] | 59.00
37 | COC(=O)CCCCC(=O)OC [dimethyl hexanedioate] | 107.00
38 | C=CC(=O)Cl [prop-2-enoyl chloride] | 14.00
39 | Cc1cc(C)cc(N)c1 [3,5-dimethylaniline] | 93.00
40 | CCOP(=S)(OCC)SCSC(C)(C)C | 88.00
41 | COP(=O)(OC)OC1=C(Cl)C2C=CCC12 (configuration not stated) | 165.00
42 | CC(=O)CCC(C)=O [hexane-2,5-dione] | 79.00
43 | CC(=O)OCC(C)C [2-methylpropyl acetate] | 17.00
44 | CC(COc1ccc(Oc2ccccc2)cc1)Oc1ccccn1 (configuration not stated) [2-[1-(4-phenoxyphenoxy)propan-2-yloxy]pyridine] | 119.00
45 | C=COC(=O)CCC [ethenyl butanoate] | 20.00
46 | Clc1ccc([Si](Cl)(Cl)Cl)cc1Cl [trichloro-(3,4-dichlorophenyl)silane] | 141.00
47 | C[Si]1(C)O[Si](C)(C)O[Si](C)(C)O[Si](C)(C)O[Si](C)(C)O1 | 73.00
48 | CCN(CC)CC [N,N-diethylethanamine] | -7.00
49 | C=C(C)C(=O)OCCC[Si](OC)(OC)OC [3-trimethoxysilylpropyl 2-methylprop-2-enoate] | 92.00
50 | COC(=O)c1ccc(C(=O)OC)cc1 [dimethyl benzene-1,4-dicarboxylate] | 153.00

Row | Structure (SMILES) | flash point [°C]
51 | CC(C)Nc1nc(Cl)nc(NC2CC2)n1 | 163.00
52 | CCCCCCCCCCCCCC [tetradecane] | 100.00
53 | CC(Cl)CO (configuration not stated) [2-chloropropan-1-ol] | 52.00
54 | CCCCCCCCCCCCCCCCCC(=O)O.O.[Cl][Cr][Cl].[Cl][Cr][Cl] [dichlorochromium;octadecanoic acid;hydrate] | 2.00
55 | c1ccc2c(c1)[nH]c1ccccc12 [9H-carbazole] | 220.00
56 | O=CCCl [2-chloroacetaldehyde] | 88.00
57 | CC(Cl)=CCCl [1,3-dichlorobut-2-ene] | 27.00
58 | COCCOCCOC [1-methoxy-2-(2-methoxyethoxy)ethane] | 67.00
59 | CCCC=NO [N-butylidenehydroxylamine] | 58.00
60 | CCCCCCCCCOC(=O)c1ccccc1C(=O)OCCCCCCCCC [dinonyl benzene-1,2-dicarboxylate] | 216.00
61 | CC(C)(C)c1ccc(OCC2CO2)cc1 (configuration not stated) [2-[(4-tert-butylphenoxy)methyl]oxirane] | 102.00
62 | CCCCc1ccccc1 [butylbenzene] | 71.00
63 | O=CC=O [oxaldehyde] | 220.00
64 | CCCCOC(=O)CC(C)C [butyl 3-methylbutanoate] | 53.00
65 | O=C(OC[C@H]1O[C@@H](OC(=O)c2cc(O)c(O)c(OC(=O)c3cc(O)c(O)c(O)c3)c2)[C@H](OC(=O)c2cc(O)c(O)c(OC(=O)c3cc(O)c(O)c(O)c3)c2)[C@@H](OC(=O)c2cc(O)c(O)c(OC(=O)c3cc(O)c(O)c(O)c3)c2)[C@@H]1OC(=O)c1cc(O)c(O)c(OC(=O)c2cc(O)c(O)c(O)c2)c1)c1cc(O)c(O)c(OC(=O)c2cc(O)c(O)c(O)c2)c1 | 199.00
66 | c1nc[nH]n1 [1H-1,2,4-triazole] | 170.00
67 | Cc1ccc(S(=O)(=O)O)cc1 [4-methylbenzenesulfonic acid] | 184.00
68 | COC(C)CCOC(C)=O (configuration not stated) [3-methoxybutyl acetate] | 77.00
69 | Nc1ccc(F)cc1F [2,4-difluoroaniline] | 63.00
70 | CC(=O)OCCOCCOCCOC(C)=O [2-[2-(2-acetyloxyethoxy)ethoxy]ethyl acetate] | 174.00
71 | C1CNCCN1 [piperazine] | 88.00
72 | CCc1cccc(C)c1N [2-ethyl-6-methylaniline] | 102.00
73 | Cc1ccc([N+](=O)[O-])cc1C [1,2-dimethyl-4-nitrobenzene] | 107.00
74 | CCCCCOC(C)=O [pentyl acetate] | 33.00
75 | OC[C@H]1O[C@@H](OC/C=C/c2ccccc2)[C@H](O)[C@@H](O)[C@@H]1O | 187.00

Row | Structure (SMILES) | flash point [°C]
76 | ClCCCCl [1,3-dichloropropane] | 21.00
77 | O=Cc1ccc(Cl)cc1 [4-chlorobenzaldehyde] | 88.00
78 | C=C(C)C(=O)OCCCCCC [hexyl 2-methylprop-2-enoate] | 82.00
79 | CC(O)COC(C)(C)C (configuration not stated) [1-[(2-methylpropan-2-yl)oxy]propan-2-ol] | 44.00
80 | CCC(=O)C(C)=O [pentane-2,3-dione] | 19.00
81 | CCCCCCCCCc1ccc(OCCOCCOCCOCCOCCOCCOCCOCCOCCO)cc1 | 197.00
82 | CCCCOCCO [2-butoxyethanol] | 61.00
83 | C1CCSC1 [thiolane] | 13.00
84 | CCC(C)OC(C)=O (configuration not stated) [butan-2-yl acetate] | 17.00
85 | Nc1ccc(O)cc1 [4-aminophenol] | 195.00
86 | C=C1CCC=C(C)CC[C@@H]2[C@@H]1CC2(C)C | 101.00
87 | COC(=O)c1ccccc1C(=O)OC [dimethyl benzene-1,2-dicarboxylate] | 146.00
88 | FCC1CO1 (configuration not stated) [2-(fluoromethyl)oxirane] | 4.00
89 | CCCCC(CC)Cc1c(C(=O)OOOC(=O)c2cc(O)c(O)c(O)c2)cc(O)c(O)c1O (configuration not stated) | 232.00
90 | COc1ccccc1[N+](=O)[O-] [1-methoxy-2-nitrobenzene] | 142.00
91 | CC(C)C(C)O (configuration not stated) [3-methylbutan-2-ol] | 33.00
92 | Clc1cc(Cl)cc(-c2cc(Cl)cc(Cl)c2)c1 [1,3-dichloro-5-(3,5-dichlorophenyl)benzene] | 141.00
93 | c1ccc2c(c1)Cc1ccccc1-2 [9H-fluorene] | 151.00
94 | FC(F)(F)c1cccc(Cl)c1 [1-chloro-3-(trifluoromethyl)benzene] | 47.00
95 | O=C1OCCO1 [1,3-dioxolan-2-one] | 143.00
96 | O=C1OC(=O)C2CCCCC12 (configuration not stated) [3a,4,5,6,7,7a-hexahydro-2-benzofuran-1,3-dione] | 149.00
97 | COC(=O)c1cccc(C(=O)OC)c1 [dimethyl benzene-1,3-dicarboxylate] | 138.00
